These results are taken from US20050020544A1, “Bicyclic CB2 cannabinoid receptor ligands” (priority 2002, published 2005).

Assay [1] has as its target human CB2 receptor (Homo sapiens, UniProt P34972). The assay is described as follows: biochemical. The class given is binding. More on the design: purchased Perkin Elmer/NEN; host or cells: CHO cells, stably transfected (membranes). To be noted: for CB2/CB1 affinity ratio: IC50 CB1/IC50 CB2; for IC50: displacement of [3H]WIN 55212-2, hCB2 CHO membranes. The protocol: (§1) In the present invention, binding affinity is represented by the IC50 value, namely the concentration of a test compound that will displace 50% of a radiolabeled agonist from the CB receptors. […] Preferably these ratios will be obtained for human CB1 and CB2 receptors. The selectivity toward CB2, denoted CB2/CB1 affinity, is calculated as the IC50 value obtained by the test compound for the displacement of the CB1 specific radioligand divided by the IC50 value obtained for the displacement of the CB2 specific radioligand, i.e. the IC50 CB1/IC50 CB2.
The affinities of the novel bicyclic analogs to the CB2 receptor were determined by their ability to displace [^3H]WIN 55212-2 from the receptor in membranes derived from hCB2 stably transfected CHO cells (Perkin Elmer/NEN). Membranes were diluted in assay buffer (10 mM HEPES, 1 mM MgCl2, 1 mM EDTA, 0.3 mg/ml BSA, pH=7.4) to 500 μg protein/ml. 50 μl of diluted membranes (25 μg) were incubated with 0.8 nM of [^3H]WIN 55212-2 in the presence or absence of several concentrations of the bicyclic test compounds in a total volume of 1 ml. Tested compounds were dissolved and diluted as previously described for the hCB1 assay. Non-specific binding was measured by the addition of 10 μM CP 55940. Following 40 minutes incubation at 30° C. reactions were filtered as previously described. Filters for all binding assays were counted in a β-counter and log of analog concentration versus % of binding was plotted. IC50 values were extrapolated from this plot.
(§2) Binding to CB1 is measured by competitive inhibition of [^3H]CP55940 in HEK-293 cells stably transfected with the human CB1 receptor gene. Binding to CB2 is measured by competitive inhibition of [^3H]WIN55212-2 in CHO cells stably transfected with the human CB2 receptor gene.

In assay [2] the test system is ICR male mice. Put plainly: Tail flick model for acute peripheral pain, i.p. In kind it is in vivo, mouse. As to the method: ICR male mice (20-30 g average body weight, Harlan, Israel) were injected i.p. at the volume dose of 5 ml/kg. Each treatment group contained at least 6 animals. Morphine HCl was used as positive control at the final dose of 5 mg/kg. Its vehicle, saline, was also included as control. The test compounds were dissolved in CREMOPHOR EL®:ethanol and diluted 1:20 in saline prior to injection, this second type of vehicle was also included as negative control. The final dose injected varied from 0.1 to 10 mg/kg. At predetermined time points after treatment injection, the animals were placed in the tail flick system (Socrel, model DS 20). Animals were gently held while their tails were located above the photoelectric cell. The tails were then illuminated (21V) at 2 cm from the distal tip and the latency time, measured in seconds, was recorded in duplicates. At the end of the study, the animals were euthanized by i.p. injection of 100 mg/kg sodium pentobarbitone.
Two parameters were used to analyze the results, the latency time and the % of animals showing analgesia. […] The results in both cases are expressed as mean±SE. The differences between the latency times or the % of animals showing analgesia among various treatment groups was analyzed by analysis of variance (ANOVA) followed by post-hoc Tukey's test (for latency) or Fisher's exact test (for % animals). A value of p<0.05 is considered to be statistically significant.

Assay [3] concerns the target T1, human CB1 receptor (Homo sapiens, UniProt P21554).
T1 construct: purchased Perkin Elmer/NEN; host or cells: HEK-293 cells, stably transfected (membranes)
The assay is described as follows: biochemical. The class given is binding. The conditions noted are these: displacement of [3H]CP55940, hCB1 HEK-293 membranes; read-out: CB1 IC50. As to the method:
as §1
The CB1 binding assays were performed by testing the ability of the new compounds to displace [^3H]CP55940 from the CB1 receptor on membranes derived from hCB1 stably transfected HEK-293 cells (Perkin Elmer/NEN). Membranes were diluted in the assay buffer (50 mM Tris-HCl, 2.5 mM EDTA, 5 mM MgCl2, 1 mg/ml BSA, pH=7.4) to 500 μg protein/ml. 50 μl of diluted membranes (25 μg) were incubated with [^3H]CP55940 in the presence or absence of the bicyclic test compounds in a total volume of 0.5 ml. Tested compounds were dissolved in DMSO and diluted in the assay buffer to a final concentration of 0.1% solvent. Control samples were added with identical amount of vehicle. Non-specific binding was measured by the addition of 10 μM of WIN 55212-2. Following 1.5 hours incubation at 30° C. reactions were filtered through Whatman 934A/H filters (presoaked with 0.1% Polyethylenimine (PEI)).
as §2

Assay [4] relates to Male Sprague Dawley rats. The assay is described as follows: Inflammatory pain: carrageenan paw edema in rats, thermal and mechanical stimuli. In kind it is in vivo, rat. To be noted: for ΔForce (tactile stimulus) / ΔLT (thermal stimulus): 10 mg/kg i.p., three hours; for analgesic activity of the antagonists by themselves: 5 mg/kg i.p. The protocol:
Male Sprague Dawley rats (200 g average body weight, Harlan, Israel) are transiently sedated by placement on dry ice for the duration of the injections. […] Before induction of inflammatory pain and three hours after injection, the animals reactions to pain stimuli were tested in two systems. The first stimulus was thermal and assessed by the Plantar Test according to Hargreaves, using Ugo Basile Model 7370. The scale was set to an intensity of 50 arbitrary units. The latency time till the animal lift a paw as a reaction to the thermal stimulus was recorded for both the inflamed and non-inflamed hind paws. The second stimulus was mechanical (tactile) and assessed using a Dynamic Plantar Sesthesiomether (Ugo Basile Model 73400-002).
The results are measured as the differences between the two hind paws at time 0 and 3 hours both as ALT, for the latency time in the thermal part of the study, and as ΔForce, for the mechanical part of the study.

The subject of assay [5] is Female Balb/c mice. The protocol:
The purpose of this study is to test in vivo the anti-inflammatory activity of the compounds in paw edema induced by injection of 1% carrageenan in the animal hind paw. Female Balb/c mice (20 g average body weight, Harlan, Israel) are anesthetized with a combination of xylazine and pentobarbitone diluted in sterile saline, 15 and 6 mg/kg i.p. respectively. Anesthetized mice are injected subcutaneously, in the subplantar region of one (right) paw with 0.05 ml of 1% w/v Carrageenan in sterile water. […] The test compounds, including known anti-inflammatory controls, are dissolved in CREMOPHOR EL®:ethanol and further diluted 1:20 or 1:50 in sterile saline prior to i.p. injection that takes place immediately before the carrageenan injection. Three hours after injection the animals are resedated following the previously described procedure. Paw thickness is measured using a dial thickness gauge (Spring-dial, constant low pressure gauge, Mitutoyo, TG/L-1, 0.01 mm) and paw volume is measured using a plethysmometer (model #7150, Ugo Basile, Italy). Paw Edema is expressed as the difference between the right treated and the left untreated paws of the same animal, either as Δ Paw Volume (ΔPV) in millimeters cube or as Δ Paw Thickness (ΔPT) in millimeters. Each group comprises at least 10 animals. […] At the end of the study, animals are euthanized with an i.p. injection of 100 mg/kg pentobarbitone.
The differences among various treatment groups are analyzed by analysis of variance (ANOVA) followed by post-hoc Fisher test. A value of p<0.05 is considered to be statistically significant.
For sake of comparison, known anti-inflammatory drugs such as Celecoxib and Dexamethasone yield respectively in the range of relevant doses 7% and 26% reduction in paw thickness at 0.1 mg/kg, 16% and 31% at 0.25 mg/kg and 24% and 33% at 0.5 mg/kg. […] It should be kept in mind that these commercially available drugs display serious side effects that prevent chronic uses without complementary protective medication.

Where [6] appears, read: 10 mg/kg i.p., 330 minutes (five and a half hours).

Like-named read-outs stand apart in the source and are kept apart here.

Sequence of human CB2 receptor (P34972 whole entry): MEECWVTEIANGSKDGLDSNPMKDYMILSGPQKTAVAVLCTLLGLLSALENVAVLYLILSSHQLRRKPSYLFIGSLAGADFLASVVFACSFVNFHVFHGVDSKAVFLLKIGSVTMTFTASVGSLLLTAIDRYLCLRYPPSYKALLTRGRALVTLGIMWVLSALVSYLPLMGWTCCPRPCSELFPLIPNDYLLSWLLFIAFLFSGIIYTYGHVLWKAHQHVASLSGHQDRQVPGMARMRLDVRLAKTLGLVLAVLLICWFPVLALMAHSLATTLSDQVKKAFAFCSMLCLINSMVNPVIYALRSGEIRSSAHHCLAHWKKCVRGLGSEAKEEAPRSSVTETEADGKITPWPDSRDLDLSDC
T1 sequence (P21554 whole entry): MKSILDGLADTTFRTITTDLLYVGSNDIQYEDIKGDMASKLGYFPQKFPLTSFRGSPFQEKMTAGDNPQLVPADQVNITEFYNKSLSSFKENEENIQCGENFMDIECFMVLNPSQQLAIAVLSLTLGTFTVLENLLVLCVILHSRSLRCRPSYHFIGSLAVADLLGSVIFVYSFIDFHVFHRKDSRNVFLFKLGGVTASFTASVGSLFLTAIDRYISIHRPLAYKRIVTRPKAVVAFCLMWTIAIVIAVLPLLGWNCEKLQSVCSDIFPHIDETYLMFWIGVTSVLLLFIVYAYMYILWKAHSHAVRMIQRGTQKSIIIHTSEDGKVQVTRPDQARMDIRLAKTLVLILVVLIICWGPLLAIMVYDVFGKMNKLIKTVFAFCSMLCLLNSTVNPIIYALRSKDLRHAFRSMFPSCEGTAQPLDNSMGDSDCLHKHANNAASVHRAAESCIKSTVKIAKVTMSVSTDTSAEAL

On to `CCCCCCC(C)(C)c1cc(O)c([C@@H]2CC(=O)C3CC2C3(C)C)c(O)c1` (single isomer, unassigned; (+)) [(+) enantiomer of compound A, reference compound], for which the CB2/CB1 affinity ratio in assay [1] is recorded as 10. Also, the latency time in assay [2] (4 mg/kg i.p., thirty minutes) is 2.4 s.

`C#CCCCCC(C)(C)c1cc(O)c(C2C=C(C)C3CC2C3(C)C)c(O)c1` (single isomer, unassigned; (+)) [Compound E, (+)-5-(1,1-Dimethyl-hept-6-ynyl)-2-(4,6,6-trimethyl-bicyclo[3.1.1]hept-3-en-2-yl)-benzene-1,3-diol]: in assay [1], the CB2/CB1 affinity ratio amounted to 33 and the IC50 was 0.783 nM. For the same compound, in assay [3], the IC50 is 26 nM.

`CC(C)(c1ccc(Cl)cc1)c1cc(O)c(C2CC(=O)C3CC2C3(C)C)c(O)c1` (single isomer, unassigned; (-)) [Compound J, (−)-4-{4-[1-(4-Chloro-phenyl)-1-methyl-ethyl]-2,6-dihydroxy-phenyl]-6,6-dimethyl-bicyclo[3.1.1]heptan-2-one]: in assay [1], the CB2/CB1 affinity ratio is given as 60 and the 50% inhibitory concentration (IC50) came to 11 nM. For the same compound, the IC50 in assay [3] stood at 659 nM.

For the compound `CCC(C)(CC)c1cc(O)c(C2CC(=O)C3CC2C3(C)C)c(O)c1` (single isomer, unassigned; (-)) [Compound M, (−)-4-[4-(1-Ethyl-1-methyl-propyl)-2,6-dihydroxy-phenyl]-6,6-dimethyl-bicyclo[3.1.1]heptan-2-one], in assay [1], the CB2/CB1 affinity ratio was determined as 96 and the IC50 was 40.8 nM. The IC50 in assay [3] stood at 3900 nM.

For the compound `CCCCCCC(C)(C)c1cc(O)c(C2CC(=O)[C@H]3C[C@@H]2C3(C)C)c(OC(=O)/C=C/C(=O)O)c1` (single isomer, unassigned; (-)) [Compound Z, (−)-4-{4-[1,1-Dimethyl-heptyl]-2-fumarate-6-hydroxy-phenyl}-6,6-dimethyl-bicyclo[3.1.1]heptan-2-one], in assay [1], the CB2/CB1 affinity ratio came out at 656 and the IC50 is 1.2 nM. Further, in assay [2] (setting [6]), the “% animals showing increased analgesia” value is recorded as “about 60%” and the latency time came to 5.2 s. For the same compound, the “ΔForce (tactile stimulus)” value in assay [4] is recorded as 2 g. Moreover, the half-maximal inhibitory concentration (IC50) in assay [3] stood at 816 nM.

`Cc1ccc(-c2cc(C(F)(F)F)nn2-c2ccc(S(N)(=O)=O)cc2)cc1` [Celecoxib, reference compound]: the “reduction in paw thickness” value in assay [5] (0.1 mg/kg) is on record as 7%; in assay [5] (0.25 mg/kg) it was 16%; in assay [5] (0.5 mg/kg), 24%. Further, the “ΔLT (thermal stimulus)” value in assay [4] stood at 0 s.

Turning to `CCCCC(C)(C)c1cc(O)c(C2C=C(COC(=O)C(C)(C)C)[C@H]3C[C@@H]2C3(C)C)c(O)c1` (stereo partly drawn) [Compound AH, 2,2-dimethylpropionic Acid-4-{4-[1,1-Dimethyl-pentyl]-2,6-dihydroxy-phenyl}-6,6-dimethyl-bicyclo[3.1.1]hept-2-en-2-yl Methyl Ester], in assay [1], the CB2/CB1 affinity ratio is 9.5. For the same compound, the IC50 is 42 nM in assay [1] and 398 nM in assay [3].

On to `C#CCCCCC(C)(C)c1cc(O)c([C@H]2CC(=O)[C@H]3C[C@@H]2C3(C)C)c(O)c1` [Compound F], for which, in assay [1], the CB2/CB1 affinity ratio amounted to 38 and the half-maximal inhibitory concentration (IC50) was 0.344 nM. Moreover, in assay [3], the IC50 stood at 13 nM.

For the compound `CC(C)(CCc1ccccc1)c1cc(O)c(C2CC(=O)C3CC2C3(C)C)c(O)c1` (stereo not drawn) [Compound G, 4-[4-(1,1-Dimethyl-3-phenyl-propyl)-2,6-dihydroxy-phenyl]-6,6-dimethyl-bicyclo[3.1.1]heptan-2-one], the CB2/CB1 affinity ratio in assay [1] is 85. Also, the IC50 in assay [1] worked out at 6.6 nM; in assay [3], 563 nM.

Turning to `CC1=CC(c2c(O)cc(-c3ccc(C(C)(C)C)cc3)cc2O)C2CC1C2(C)C` (stereo not drawn) [Compound Q, 5-(1,1-Dimethyl-ethyl-phenyl)-2-(4,6,6-trimethyl-bicyclo[3.1.1]hept-3-en-2-yl)-benzene-1,3-diol], in assay [1], the CB2/CB1 affinity ratio turned out to be 53 and the 50% inhibitory concentration (IC50) is 12 nM. Further, the IC50 in assay [3] was found to be 640 nM.

Regarding `O=C(O)Cc1ccccc1Nc1c(Cl)cccc1Cl` [Diclofenac, reference compound], in assay [4], the “ΔForce (tactile stimulus)” value turned out to be 2 g and the “ΔLT (thermal stimulus)” value stood at 0 s.

In the case of `CC(C(=O)O)c1cccc(C(=O)c2ccccc2)c1` (stereo not drawn) [Ketoprofen, reference compound], in assay [4], the “ΔForce (tactile stimulus)” value was 7 g and the “ΔLT (thermal stimulus)” value is 0 s.

On to `Cc1c(C(=O)NN2CCCCC2)nn(-c2ccc(Cl)cc2Cl)c1-c1ccc(Cl)cc1` [SR141716A, reference compound], for which the “analgesic activity of the antagonists by themselves” value in assay [4] was “no analgesic activity”.

Consider SR144528 [reference compound], for which the “analgesic activity of the antagonists by themselves” value in assay [4] was “no analgesic activity”.
